Laboratory results from US8247447B2, “Use of derivatives of 4-hydroxyphenoxy acetic acid” (Cognis IP Management GmbH, priority 2007, dated 2012).

Tested on: Melanocytes (B16 cell line)
Assay: Melanogenesis inhibition assay (melanin level by optical density at 475 nm; viable cells by cellular proteins, Bradford's method)
Assay type: cell-based
Settings: for Protein level (rate of cellular proteins) / Melanin level (rate of melanin): B16 melanocytes, 3 days incubation; for Protein level (rate of cellular proteins): Bradford's method; for Melanin level (rate of melanin): OD 475 nm
Description: Melanocytes (B16 cell line) were inoculated in standard medium of cell culture with foetal calf serum (FCS). After an incubation of 3 day at 37° C. and CO2=5%, growth medium was exchanged for standard medium with a range of concentrations for each compound to be tested and a control without ingredient. After an incubation of 3 days, the level of melanin was measured by recording the optical density at 475 nm. After washing the cells by a balanced salt, and homogenisation in a solution of 0.1 M NaOH, the number of viable cells was determined by evaluation of the level of cellular proteins (Bradford's method). The results are expressed in % against control (cell culture medium without compound) as a mean on 1 to 3 assays, each in triplicate.

With `CC(Oc1ccc(O)cc1)C(=O)O` (racemic) [2-(4-hydroxyphenoxy)-propionic acid] the “Protein level (rate of cellular proteins)” value (“Protein level” for short) (dose 0.00003 % (w/v)) was 103 %/control, the “Melanin level (rate of melanin)” value (dose 0.00003 % (w/v)) was 84 %/control and the “Protein level” value (dose 0.0001 % (w/v)) was 97 %/control. The “Melanin level (rate of melanin)” value (dose 0.0001 % (w/v)) was 57 %/control, the “Protein level” value (dose 0.0003 % (w/v)) was 107 %/control and the “Melanin level (rate of melanin)” value (dose 0.0003 % (w/v)) was 52 %/control. The “Protein level” value (dose 0.001 % (w/v)) was 104 %/control, the “Melanin level (rate of melanin)” value (dose 0.001 % (w/v)) was 39 %/control and the “Protein level” value (dose 0.01 % (w/v)) was 98 %/control. For the same molecule, the “Melanin level (rate of melanin)” value (dose 0.01 % (w/v)) was 37 %/control, the cell toxicity (melanocytes, doses up to 0.01%) was “without any cell toxicity” and the “rate of melanin synthesis in melanocytes” value (result in words, over the tested dose range) was “decreased in a dose dependant manner”.
